Legend:
Assay in all cases: KINOMEscan competition binding
[1] = molecular target: T1, CDC2L1 (Homo sapiens, UniProt P21127); settings: CDC2L1 (Entrez CDK11B), read-out: Percent Control
T1 construct: purchased KINOMEscan (screening service)
Procedure: (§1) KINOMEscan™ is based on a competition binding assay that quantitatively measures the ability of a compound to compete with an immobilized, active-site directed ligand (Fabian et al. (2005) Nat. Biotechnol. 23, 329; Karaman et al. (2008) Nat. Biotechnol. 26, 127). The compound was screened at 10 μM, and results for primary screen binding interactions are reported as ‘% Ctrl’, where lower numbers indicate stronger hits. The results for kinases targets with a % Ctrl less than 30 can be seen in Table 2.

[2] = molecular target: T2, BTK (Homo sapiens, UniProt Q06187); settings: read-out: Percent Control
T2 construct: purchased KINOMEscan (panel service)
Procedure: as §1

[3] = molecular target: BRAF (Homo sapiens, UniProt P15056); settings: read-out: Percent Control
Procedure: as §1

[4] = molecular target: T3, GAK (Homo sapiens, UniProt O14976); settings: read-out: Percent Control
T3 construct: purchased KINOMEscan (screening service)
Procedure: as §1

[5] = molecular target: T4, LTK (Homo sapiens, UniProt P29376); settings: read-out: Percent Control
T4 construct: purchased KINOMEscan (screening platform)
Procedure: as §1

[6] = molecular target: T5, SRC (Homo sapiens, UniProt P12931); settings: read-out: Percent Control
T5 construct: purchased KINOMEscan (panel service)
Procedure: as §1

[7] = molecular target: T6, TAOK3 (Homo sapiens, UniProt Q9H2K8); settings: read-out: Percent Control
T6 construct: purchased KINOMEscan (screening platform)
Procedure: as §1

[8] = molecular target: RET(M918T) (Homo sapiens, UniProt P07949, M918T); settings: read-out: Percent Control
Procedure: as §1

[9] = molecular target: SIK (Homo sapiens, UniProt P57059); settings: SIK (Entrez SIK1), read-out: Percent Control
Procedure: as §1

[10] = molecular target: T7, AURKB (Homo sapiens, UniProt Q96GD4); settings: read-out: Percent Control
T7 construct: purchased KINOMEscan (screening service)
Procedure: as §1

[11] = molecular target: T8, PRKCQ (Homo sapiens, UniProt Q04759); settings: read-out: Percent Control
T8 construct: purchased KINOMEscan (screening platform)
Procedure: as §1

[12] = molecular target: VEGFR2 (Homo sapiens, UniProt P35968); settings: VEGFR2 (Entrez KDR), read-out: Percent Control
Procedure: as §1

[13] = molecular target: ABL1(F317L)-phosphorylated (Homo sapiens, UniProt P00519, F317L); settings: read-out: Percent Control
Procedure: as §1

[14] = tested on: EGFR(L747-T751del, Sins); settings: 10 μM
Procedure: as §1

[15] = molecular target: HCK (Homo sapiens, UniProt P08631); settings: read-out: Percent Control
Procedure: as §1

[16] = molecular target: IKK-alpha (Homo sapiens, UniProt O15111); settings: IKK-alpha (Entrez CHUK), read-out: Percent Control
Procedure: as §1

[17] = molecular target: T9, EPHA8 (Homo sapiens, UniProt P29322); settings: read-out: Percent Control
T9 construct: purchased KINOMEscan (panel service)
Procedure: as §1

[18] = molecular target: T10, ABL1(H396P)-nonphosphorylated (Homo sapiens, UniProt P00519, H396P); settings: read-out: Percent Control
T10 construct: purchased KINOMEscan (panel service)
Procedure: as §1

[19] = molecular target: T11, JNK1 (Homo sapiens, UniProt P45983); settings: JNK1 (Entrez MAPK8), read-out: Percent Control
T11 construct: purchased KINOMEscan (screening platform)
Procedure: as §1

[20] = molecular target: T12, LCK (Homo sapiens, UniProt P06239); settings: read-out: Percent Control
T12 construct: purchased KINOMEscan (panel service)
Procedure: as §1

[21] = molecular target: ABL1-nonphosphorylated (Homo sapiens, UniProt P00519); settings: read-out: Percent Control
Procedure: as §1

[22] = molecular target: T13, EPHB1 (Homo sapiens, UniProt P54762); settings: read-out: Percent Control
T13 construct: purchased KINOMEscan (panel service)
Procedure: as §1

[23] = molecular target: EGFR(E746-A750del) (Homo sapiens, UniProt P00533, DEL746-750); settings: read-out: Percent Control
Procedure: as §1

[24] = molecular target: KIT(A829P) (Homo sapiens, UniProt P10721, A829P); settings: read-out: Percent Control
Procedure: as §1

[25] = molecular target: T14, KIT (Homo sapiens, UniProt P10721); settings: read-out: Percent Control
T14 construct: purchased KINOMEscan (panel service)
Procedure: as §1

[26] = molecular target: T15, JAK3(JH1domain-catalytic) (Homo sapiens, UniProt P52333); settings: read-out: Percent Control
T15 construct: JAK3(JH1domain-catalytic)
Procedure: as §1

[27] = molecular target: T16, DRAK1 (Homo sapiens, UniProt Q9UEE5); settings: DRAK1 (Entrez STK17A), read-out: Percent Control
T16 construct: purchased KINOMEscan (screening platform)
Procedure: as §1

[28] = molecular target: FLT3(N841I) (Homo sapiens, UniProt P36888, N841I); settings: read-out: Percent Control
Procedure: as §1

[29] = molecular target: ZAK (Homo sapiens, UniProt Q9NYL2); settings: read-out: Percent Control
Procedure: as §1

[30] = molecular target: T17, BRAF(V600E) (Homo sapiens, UniProt P15056, V600E); settings: read-out: Percent Control
T17 construct: purchased KINOMEscan (panel service)
Procedure: as §1

[31] = molecular target: EPHA7 (Homo sapiens, UniProt Q15375); settings: read-out: Percent Control
Procedure: as §1

[32] = molecular target: TNK2 (Homo sapiens, UniProt Q07912); settings: read-out: Percent Control
Procedure: as §1

[33] = molecular target: ABL1(Q252H)-nonphosphorylated (Homo sapiens, UniProt P00519, Q252H); settings: read-out: Percent Control
Procedure: as §1

[34] = molecular target: PDGFRB (Homo sapiens, UniProt P09619); settings: read-out: Percent Control
Procedure: as §1

[35] = molecular target: T18, FGFR4 (Homo sapiens, UniProt P22455); settings: read-out: Percent Control
T18 construct: purchased KINOMEscan (screening platform)
Procedure: as §1

[36] = molecular target: T19, ABL2 (Homo sapiens, UniProt P42684); settings: read-out: Percent Control
T19 construct: purchased KINOMEscan (panel service)
Procedure: as §1

T8 sequence (Q04759 whole entry): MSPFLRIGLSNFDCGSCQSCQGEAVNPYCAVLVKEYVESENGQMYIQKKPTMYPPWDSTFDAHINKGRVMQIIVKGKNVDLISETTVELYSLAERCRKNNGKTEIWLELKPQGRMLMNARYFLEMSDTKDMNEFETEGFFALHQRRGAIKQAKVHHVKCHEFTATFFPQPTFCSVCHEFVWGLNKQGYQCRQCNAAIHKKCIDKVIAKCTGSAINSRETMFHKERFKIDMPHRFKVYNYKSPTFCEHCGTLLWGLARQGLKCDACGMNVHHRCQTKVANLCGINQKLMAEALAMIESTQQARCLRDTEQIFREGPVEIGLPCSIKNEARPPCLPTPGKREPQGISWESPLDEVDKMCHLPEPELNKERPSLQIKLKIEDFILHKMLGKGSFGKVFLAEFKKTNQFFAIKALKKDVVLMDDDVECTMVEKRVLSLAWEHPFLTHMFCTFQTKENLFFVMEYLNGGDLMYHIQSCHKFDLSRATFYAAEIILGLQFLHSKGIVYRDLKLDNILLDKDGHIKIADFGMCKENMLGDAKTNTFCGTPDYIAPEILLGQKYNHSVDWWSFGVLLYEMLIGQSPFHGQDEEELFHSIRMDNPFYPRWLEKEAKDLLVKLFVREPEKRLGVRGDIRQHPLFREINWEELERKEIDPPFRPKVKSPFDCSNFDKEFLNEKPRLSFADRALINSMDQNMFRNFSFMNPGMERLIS
ZAK, sequence (Q9NYL2 whole entry): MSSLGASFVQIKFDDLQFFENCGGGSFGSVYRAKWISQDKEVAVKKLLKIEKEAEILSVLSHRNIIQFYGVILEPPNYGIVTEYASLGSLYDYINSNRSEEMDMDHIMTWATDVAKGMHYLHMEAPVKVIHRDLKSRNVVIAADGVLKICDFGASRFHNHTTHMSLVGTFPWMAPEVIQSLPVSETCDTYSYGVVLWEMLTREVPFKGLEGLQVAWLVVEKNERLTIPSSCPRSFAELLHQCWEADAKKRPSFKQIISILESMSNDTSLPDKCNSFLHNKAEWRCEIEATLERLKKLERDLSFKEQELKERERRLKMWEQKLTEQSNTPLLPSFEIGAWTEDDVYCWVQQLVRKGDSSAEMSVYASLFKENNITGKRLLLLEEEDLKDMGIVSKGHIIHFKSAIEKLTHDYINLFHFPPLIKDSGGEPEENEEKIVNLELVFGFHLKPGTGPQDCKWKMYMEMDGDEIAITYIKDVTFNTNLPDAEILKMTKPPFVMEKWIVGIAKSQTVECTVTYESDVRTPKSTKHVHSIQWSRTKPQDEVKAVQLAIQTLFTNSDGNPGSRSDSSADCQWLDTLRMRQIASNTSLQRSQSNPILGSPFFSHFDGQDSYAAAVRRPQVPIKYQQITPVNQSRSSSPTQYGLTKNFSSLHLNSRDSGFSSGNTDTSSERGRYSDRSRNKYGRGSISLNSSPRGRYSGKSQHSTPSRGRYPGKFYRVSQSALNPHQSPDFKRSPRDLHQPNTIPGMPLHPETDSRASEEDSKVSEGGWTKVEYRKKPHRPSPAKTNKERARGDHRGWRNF
EGFR(E746-A750del), sequence (P00533 with tags, fused parts or gaps DEL746-750): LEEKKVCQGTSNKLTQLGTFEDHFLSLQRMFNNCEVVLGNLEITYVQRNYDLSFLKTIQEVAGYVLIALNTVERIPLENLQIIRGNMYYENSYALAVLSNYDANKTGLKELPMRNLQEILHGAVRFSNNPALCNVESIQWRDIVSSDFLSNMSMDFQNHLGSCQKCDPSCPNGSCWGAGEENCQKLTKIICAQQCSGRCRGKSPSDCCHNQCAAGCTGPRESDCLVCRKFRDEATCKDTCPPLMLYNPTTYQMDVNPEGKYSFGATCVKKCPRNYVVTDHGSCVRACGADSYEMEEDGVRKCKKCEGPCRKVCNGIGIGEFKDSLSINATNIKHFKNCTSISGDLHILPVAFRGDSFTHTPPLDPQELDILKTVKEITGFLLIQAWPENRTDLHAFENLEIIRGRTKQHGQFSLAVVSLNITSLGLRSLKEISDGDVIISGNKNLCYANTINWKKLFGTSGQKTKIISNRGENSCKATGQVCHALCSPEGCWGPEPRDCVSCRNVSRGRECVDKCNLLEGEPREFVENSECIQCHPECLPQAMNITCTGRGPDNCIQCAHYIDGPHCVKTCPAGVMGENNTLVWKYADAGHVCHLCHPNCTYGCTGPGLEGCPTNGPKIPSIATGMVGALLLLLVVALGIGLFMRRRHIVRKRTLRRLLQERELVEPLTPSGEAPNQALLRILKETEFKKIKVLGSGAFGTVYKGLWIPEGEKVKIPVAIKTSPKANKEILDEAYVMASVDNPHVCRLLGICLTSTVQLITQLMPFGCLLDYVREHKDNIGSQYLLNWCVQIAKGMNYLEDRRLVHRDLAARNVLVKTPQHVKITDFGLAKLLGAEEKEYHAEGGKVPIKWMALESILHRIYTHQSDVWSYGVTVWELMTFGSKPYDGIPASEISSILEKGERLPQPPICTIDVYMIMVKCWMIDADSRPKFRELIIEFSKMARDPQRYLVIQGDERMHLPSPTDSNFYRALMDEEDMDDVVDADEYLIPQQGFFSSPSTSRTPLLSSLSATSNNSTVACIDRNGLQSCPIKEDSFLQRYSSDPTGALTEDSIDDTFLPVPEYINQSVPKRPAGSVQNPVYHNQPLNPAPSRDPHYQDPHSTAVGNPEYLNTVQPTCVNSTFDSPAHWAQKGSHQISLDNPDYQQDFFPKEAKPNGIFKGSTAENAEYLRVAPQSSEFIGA
T18 sequence (P22455 22-802): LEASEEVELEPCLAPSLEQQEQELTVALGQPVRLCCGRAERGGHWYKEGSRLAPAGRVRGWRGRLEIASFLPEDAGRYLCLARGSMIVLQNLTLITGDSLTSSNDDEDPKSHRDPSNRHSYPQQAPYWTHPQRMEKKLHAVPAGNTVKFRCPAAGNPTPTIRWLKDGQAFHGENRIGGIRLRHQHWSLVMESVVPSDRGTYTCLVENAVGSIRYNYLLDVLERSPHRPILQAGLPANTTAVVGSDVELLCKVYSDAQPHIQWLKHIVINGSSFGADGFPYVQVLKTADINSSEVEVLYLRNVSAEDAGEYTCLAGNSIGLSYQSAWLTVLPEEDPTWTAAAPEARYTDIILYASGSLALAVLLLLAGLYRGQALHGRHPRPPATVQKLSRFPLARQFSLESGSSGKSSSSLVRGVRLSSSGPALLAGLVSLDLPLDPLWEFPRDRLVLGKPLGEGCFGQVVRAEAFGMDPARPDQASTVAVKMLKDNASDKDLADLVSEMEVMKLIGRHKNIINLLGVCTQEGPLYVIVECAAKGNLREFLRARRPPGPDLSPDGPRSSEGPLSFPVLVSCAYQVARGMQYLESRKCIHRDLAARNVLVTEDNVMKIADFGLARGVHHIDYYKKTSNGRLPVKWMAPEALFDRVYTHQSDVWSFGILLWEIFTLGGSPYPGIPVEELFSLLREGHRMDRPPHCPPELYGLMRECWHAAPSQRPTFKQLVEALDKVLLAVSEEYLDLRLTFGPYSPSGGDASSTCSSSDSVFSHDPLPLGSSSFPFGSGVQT
T3 sequence (O14976 whole entry): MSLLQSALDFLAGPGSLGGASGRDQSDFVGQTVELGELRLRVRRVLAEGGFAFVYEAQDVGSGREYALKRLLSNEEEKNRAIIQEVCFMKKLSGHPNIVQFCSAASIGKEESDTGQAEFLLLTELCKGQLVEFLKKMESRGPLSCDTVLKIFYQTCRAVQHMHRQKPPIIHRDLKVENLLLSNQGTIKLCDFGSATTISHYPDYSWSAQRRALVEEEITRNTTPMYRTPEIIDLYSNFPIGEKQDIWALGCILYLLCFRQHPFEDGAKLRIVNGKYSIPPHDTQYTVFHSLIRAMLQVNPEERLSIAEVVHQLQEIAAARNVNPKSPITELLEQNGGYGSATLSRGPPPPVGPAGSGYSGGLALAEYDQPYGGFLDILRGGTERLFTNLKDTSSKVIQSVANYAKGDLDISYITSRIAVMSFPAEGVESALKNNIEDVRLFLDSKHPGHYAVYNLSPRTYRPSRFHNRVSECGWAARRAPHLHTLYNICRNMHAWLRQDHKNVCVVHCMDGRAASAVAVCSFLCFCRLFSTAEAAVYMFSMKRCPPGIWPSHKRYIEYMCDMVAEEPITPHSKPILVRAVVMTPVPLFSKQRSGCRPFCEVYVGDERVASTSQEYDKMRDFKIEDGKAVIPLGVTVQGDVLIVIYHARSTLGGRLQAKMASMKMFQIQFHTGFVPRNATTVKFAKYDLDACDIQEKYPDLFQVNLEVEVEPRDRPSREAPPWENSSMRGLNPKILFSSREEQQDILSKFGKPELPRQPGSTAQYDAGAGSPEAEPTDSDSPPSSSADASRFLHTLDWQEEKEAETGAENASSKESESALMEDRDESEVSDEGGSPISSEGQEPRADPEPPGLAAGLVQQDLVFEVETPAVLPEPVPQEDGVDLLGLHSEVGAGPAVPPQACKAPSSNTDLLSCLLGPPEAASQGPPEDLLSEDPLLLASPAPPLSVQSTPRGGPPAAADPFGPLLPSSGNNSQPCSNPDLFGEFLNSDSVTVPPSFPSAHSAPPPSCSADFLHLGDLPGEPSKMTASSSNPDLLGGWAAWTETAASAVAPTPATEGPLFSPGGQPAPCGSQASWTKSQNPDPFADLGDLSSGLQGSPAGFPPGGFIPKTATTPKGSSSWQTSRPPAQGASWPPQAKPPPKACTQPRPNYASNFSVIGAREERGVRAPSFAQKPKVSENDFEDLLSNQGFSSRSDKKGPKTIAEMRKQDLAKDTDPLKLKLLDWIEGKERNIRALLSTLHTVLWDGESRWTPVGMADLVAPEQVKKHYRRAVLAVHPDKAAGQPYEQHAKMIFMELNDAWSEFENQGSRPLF
T15 sequence (P52333 822-1111 limits assumed): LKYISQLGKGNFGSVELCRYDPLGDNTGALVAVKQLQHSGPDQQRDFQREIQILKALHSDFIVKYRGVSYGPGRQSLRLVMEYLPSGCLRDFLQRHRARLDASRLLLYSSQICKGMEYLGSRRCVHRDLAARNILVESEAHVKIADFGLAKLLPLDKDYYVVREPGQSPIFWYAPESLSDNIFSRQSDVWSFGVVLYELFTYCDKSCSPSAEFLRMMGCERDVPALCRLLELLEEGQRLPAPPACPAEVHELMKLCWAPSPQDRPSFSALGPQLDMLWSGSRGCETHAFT

## Cc1ccc(Nc2ncc3c(n2)N(C)CN(c2cc(NC(=O)c4cccc(C(F)(F)F)c4)ccc2C)C3)cn1 [IA-9, N-(4-methyl-3-(1-methyl-7-((6-methylpyridin-3-yl)amino)-1,4-dihydropyrimido[4,5-d]pyrimidin-3(2H)-yl)phenyl)-3-(trifluoromethyl)benzamide]
[1]
  remaining binding at 10 µM: 15%
[2]
  remaining binding at 10 µM: 0.15%
[3]
  remaining binding at 10 µM: 0.5%
[4]
  remaining binding at 10 µM: 7.4%
[5]
  remaining binding at 10 µM: 22%
[6]
  remaining binding at 10 µM: 0.15%
[7]
  remaining binding at 10 µM: 29%
[8]
  remaining binding at 10 µM: 0%
[9]
  remaining binding at 10 µM: 0.35%
[10]
  remaining binding at 10 µM: 15%
[11]
  remaining binding at 10 µM: 25%
[12]
  remaining binding at 10 µM: 2%
[13]
  remaining binding at 10 µM: 3.2%
[14]
  Percent Control: 0.4 % Ctrl
[15]
  remaining binding at 10 µM: 0.55%
[16]
  remaining binding at 10 µM: 1%
[17]
  remaining binding at 10 µM: 0.15%
[18]
  remaining binding at 10 µM: 0.05%
[19]
  remaining binding at 10 µM: 28%
[20]
  remaining binding at 10 µM: 0.15%
[21]
  remaining binding at 10 µM: 0.3%
[22]
  remaining binding at 10 µM: 0.15%
[23]
  remaining binding at 10 µM: 2.3%
[24]
  remaining binding at 10 µM: 3.6%
[25]
  remaining binding at 10 µM: 0.05%
[26]
  remaining binding at 10 µM: 5%
[27]
  remaining binding at 10 µM: 22%
[28]
  remaining binding at 10 µM: 0.55%
[29]
  remaining binding at 10 µM: 0.55%
[30]
  remaining binding at 10 µM: 0.1%
[31]
  remaining binding at 10 µM: 0.55%
[32]
  remaining binding at 10 µM: 2.4%
[33]
  remaining binding at 10 µM: 0.75%
[34]
  remaining binding at 10 µM: 0%
[35]
  remaining binding at 10 µM: 25%
[36]
  remaining binding at 10 µM: 0.1%

From patent publication US10364247B2, “Preparation and use of novel protein kinase inhibitors” (Ruijin Hospital Affiliated to Shanghai Jiao Tong University …, priority 2015, dated 2019)
